Measurements reported in patent US10071095B2, “1,2,4-triazolo [4,3-A] pyridine derivatives and their use for the treatment of neurological and psychiatric disorders” (JANSSEN PHARMACEUTICALS, INC., priority 2009, dated 2018).

Key:
[1] = target: T1, human mGluR2 receptor (Homo sapiens, UniProt Q14416); test: [35S]GTPγS binding assay, positive allosteric modulation (GTPγS-PAM) in presence of EC20 glutamate; format: biochemical; settings: in presence of glutamate at EC20, average pEC50 if more experiments, ‡ means tested once; for EC50: read-out: GTPγS - hR2 PAM pEC50 (converted)
T1 construct: expressed in transfected cells; host or cells: CHO cells
Procedure, shortened: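 Membranes from butyrate-stimulated CHO cells expressing human mGluR2 (7 μg protein) preincubated 30 min at 30°C with compound plus ~EC20 glutamate in HEPES pH 7.4, 100 mM NaCl, 3 mM MgCl2, 10 μM GDP, 10 μg/ml saponin. [35S]GTPγS (0.1 nM) incorporation over 30 min at 30°C measured by filtration and scintillation counting.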

[2] = test system: PCP-induced hyperlocomotion in male NMRI mice; test: Phencyclidine (PCP)-induced hyperlocomotion in mice (video tracking); format: in vivo; settings: for Mice ED50 (mg/kg) PCP-Inh., estimated ED50 (footnote a) / Mice ED50 (mg/kg) PCP-Inh.: inhibition of PCP-induced hyperlocomotion; for Mice ED50 (mg/kg) PCP-Inh., estimated ED50 (footnote a): estimated ED50 values (n = 3 per dose; 4-fold separation between doses); for Mice ED50 (mg/kg) PCP-Inh.: dose at which 50% of the tested animals show the effect
Experimental: Motor Activity (Video Tracking)
Apparatus and General Procedure
On the day of experiments, the mice were brought into the procedural room. They were housed individually and allowed to acclimate for at least a half hour prior to testing. Although the studies were conducted during the light cycle (from 8:00 to 16:00 h), the procedure room was only sparsely lit (3 to 30 LUX) to provide better contrast for the video tracking. Local lighting was used for the injection procedures. During each trial, an individual mouse was placed in an open field arena (grey PVC cylinder with a height of 40 cm and a diameter of 22.5 cm). Each arena was placed on an infrared LED (8×8 LEDs)-lit box (white PVC squared box; 40×40 cm^2; height 12.5 cm). Each mouse was placed in the center of the arena and allowed to explore freely for 30 min. After each trial, the arena was cleaned with a wet and subsequently with a dry cleaning cloth. An infrared sensitive tube camera and a white light source (in arena: 4-7 LUX) were mounted to the ceiling above the observation chamber to record and input activity to a computer. Animal behavior was recorded and analyzed using the Noldus Ethovision XT Video Tracking System (Version 3.1; Noldus, Wageningen, The Netherlands). The total distance traveled (cm) was calculated. Data were then exported to data management systems for further analysis and reporting.
Phencyclidine (PCP)-Induced Hyperlocomotion in Mice
Test compound or solvent was administered at a pre-defined time before measurement (standard: 30 min) to male NMRI mice that were challenged with phencyclidine (PCP; 5 mg/kg, s.c.) 30 min before measurement. Activity was measured for a period of 30 min.

T1 sequence (Q14416 19-872): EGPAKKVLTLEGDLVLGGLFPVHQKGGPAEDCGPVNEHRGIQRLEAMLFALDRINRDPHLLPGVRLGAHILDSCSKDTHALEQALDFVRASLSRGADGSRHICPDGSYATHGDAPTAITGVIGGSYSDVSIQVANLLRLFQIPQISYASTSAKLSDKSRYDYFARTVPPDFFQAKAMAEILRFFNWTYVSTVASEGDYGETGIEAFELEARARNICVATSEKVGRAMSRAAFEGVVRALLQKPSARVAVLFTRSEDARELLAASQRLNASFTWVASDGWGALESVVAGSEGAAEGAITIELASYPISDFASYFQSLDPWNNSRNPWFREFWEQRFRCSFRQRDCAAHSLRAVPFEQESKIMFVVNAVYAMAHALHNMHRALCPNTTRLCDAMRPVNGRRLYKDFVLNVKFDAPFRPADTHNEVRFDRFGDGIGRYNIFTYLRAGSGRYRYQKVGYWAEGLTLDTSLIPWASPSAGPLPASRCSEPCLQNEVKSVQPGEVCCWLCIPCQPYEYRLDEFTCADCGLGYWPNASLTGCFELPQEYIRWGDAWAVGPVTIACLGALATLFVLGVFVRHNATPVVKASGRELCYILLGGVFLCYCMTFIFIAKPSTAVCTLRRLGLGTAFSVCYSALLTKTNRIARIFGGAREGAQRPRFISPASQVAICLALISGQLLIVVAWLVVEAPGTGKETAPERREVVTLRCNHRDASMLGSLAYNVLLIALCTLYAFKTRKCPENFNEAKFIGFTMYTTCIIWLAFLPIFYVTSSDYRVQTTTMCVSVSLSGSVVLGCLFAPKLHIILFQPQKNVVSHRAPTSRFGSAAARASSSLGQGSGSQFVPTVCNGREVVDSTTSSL

melting point | EC50 [1] | GTPγS - hR2 PAM pEC50 [1] | Compound | further results
181.8 °C | 209 nM | – | Clc1c(CN2CCC(c3ccccc3)CC2)ccn2c(CC3CC3)nnc12 [compound 1, 8-Chloro-3-cyclopropylmethyl-7-[(4-phenyl-1-piperidinyl)methyl]-1,2,4-triazolo[4,3-a]pyridine] | –
> 300 °C | 97.7 nM | – | FC(F)(F)Cc1nnc2c(Cl)c(N3CCC4(CC3)OCc3ccccc34)ccn12 [compound 8] | –
269.1 °C | 178 nM | – | FC(F)(F)Cc1nnc2c(Cl)c(N3CCC4(CC3)COc3ccccc34)ccn12 [compound 16, 1′-[8-Chloro-3-(2,2,2-trifluoroethyl)[1,2,4]triazolo[4,3-a]pyridin-7-yl]-spiro[1-benzofuran-3,4′-piperidine]] | –
153.7 °C | 69.2 nM | – | CC(C)OCc1nnc2c(C(F)(F)F)c(N3CCC(F)(c4ccccc4)CC3)ccn12 [compound 18, 7-(4-Fluoro-4-phenylpiperidin-1-yl)-3-[(1-methylethoxy)methyl]-8-(trifluoromethyl)[1,2,4]triazolo[4,3-a]pyridine] | –
– | – | 6.95 | FC(F)(F)Cc1nnc2c(Cl)c(CN3CCC(c4ccccc4)CC3)ccn12 [compound 30] | inhibition of PCP-induced hyperlocomotion in mice (in words) [2]: inhibited; Mice ED50 (mg/kg) PCP-Inh., estimated ED50 (footnote a) [2]: 5 ^a) mg/kg
– | – | 6.02 | N#Cc1c(N2CCN(C3CCC(C(F)(F)F)CC3)CC2)ccn2c(CC3CC3)nnc12 (stereo not drawn) [compound 44] | Mice ED50 (mg/kg) PCP-Inh. [2]: >40 mg/kg
– | – | 6.94 | CCc1nnc2c(C(F)(F)F)c(N3CCC(c4ccccc4)CC3)ccn12 [compound 66] | inhibition of PCP-induced hyperlocomotion in mice (in words) [2]: inhibited; Mice ED50 (mg/kg) PCP-Inh. [2]: 17.4 ^ mg/kg
– | – | 6.83 | FC(F)(F)c1c(N2CCC(c3ccccn3)CC2)ccn2c(CC3CC3)nnc12 [compound 78] | Mice ED50 (mg/kg) PCP-Inh. [2]: ≥10^ mg/kg
218.4 °C | 234 nM | – | FC(F)(F)c1c(N2CCN(c3ccccc3)C3(CC3)C2)ccn2c(CC3CC3)nnc12 [compound 121, 1′-[3-cyclopropylmethyl-8-(trifluoromethyl)[1,2,4]triazolo[4,3-a]pyridin-7-yl]-4-phenyl-4,7-diaza-spiro[2.5]octane] | –
300 °C | 40.7 nM | – | FC(F)(F)c1c(N2CCC(c3ccccc3)CC2)ccn2c(CCC3CC3)nnc12 [compound 123, 8-Trifluoromethyl-3-(2′-cyclopropyl)ethyl-7-(4-phenylpiperidin-1-yl)-[1,2,4]triazolo[4,3-a]pyridine] | –
> 300 °C | 204 nM | – | c1ccc(C2CCN(c3ccn4c(CC5CC5)nnc4c3C3CC3)CC2)cc1 [compound 159, 3-Cyclopropylmethyl-8-cyclopropyl-7-(4-phenylpiperidin-1-yl)-[1,2,4]triazolo[4,3-a]pyridine] | –
– | – | 7.64 | Fc1ccc(CN2CCCC3(C2)CN(c2ccn4c(CC5CC5)nnc4c2C(F)(F)F)C3)c(F)c1 [compound 232] | –
– | – | 7.23 | CC1(C)CN(c2ccn3c(CC4CC4)nnc3c2C(F)(F)F)CCN1c1cc(F)cc(F)c1 [compound 233] | –
– | – | 6.08‡ | FC1(F)CCN(C2CCN(c3ccn4c(CC5CC5)nnc4c3C(F)(F)F)CC2)CC1 [compound 238] | –
– | – | 6.67‡ | Clc1c(N2CCC(n3ccc4ccccc43)CC2)ccn2c(CC3CC3)nnc12 [compound 259] | –
– | – | 7.83‡ | Fc1ccccc1C1CCN(c2ccn3c(CC4CC4)nnc3c2C(F)(F)F)CC1 [compound 274] | –
– | – | 7.72 | COc1cc(F)ccc1C1CCN(c2ccn3c(CC4CC4)nnc3c2C(F)(F)F)CC1 [compound 277] | –
– | – | 7.87‡ | FC(F)(F)c1c(N2CCC(c3ccccc3Cl)CC2)ccn2c(CC3CC3)nnc12 [compound 287] | –
– | – | 7.24 | Fc1cccc(F)c1C1CCN(c2ccn3c(CC4CC4)nnc3c2Cl)CC1 [compound 300] | inhibition of PCP-induced hyperlocomotion in mice (in words) [2]: inhibited; Mice ED50 (mg/kg) PCP-Inh., estimated ED50 (footnote a) [2]: 12.6 ^a) mg/kg
– | – | 7.71‡ | CCCCc1nnc2c(C(F)(F)F)c(N3CCC(c4ccc(F)cc4F)CC3)ccn12 [compound 327] | –
– | – | 7.15‡ | CCOCc1nnc2c(C(F)(F)F)c(N3CCC(c4ccc(F)cc4F)CC3)ccn12.Cl [compound 339] | –
– | – | 7.46‡ | Fc1cc(F)cc(N2CCN(c3ccn4c(CC5CC5)nnc4c3C(F)(F)F)CC2)c1 [compound 351] | –
– | – | 7‡ | Fc1cnc(N2CCN(c3ccn4c(CC5CC5)nnc4c3C(F)(F)F)CC2)c(F)c1 [compound 359] | –

The remaining lines, values behind:

Compound | melting point | EC50 [1] | GTPγS - hR2 PAM pEC50 [1] | further results
Clc1c(N2CCC3(CC2)OCc2ccccc23)ccn2c(CC3CC3)nnc12 [compound 6, 1′-[8-Chloro-3-(cyclopropylmethyl)-1,2,4-triazolo[4,3-a]pyridin-7-yl]-spiro[isobenzofuran-1(3H),4′piperidine]] | 194.5 °C | 129 nM | – | –
N#Cc1c(N2CCC(c3ccccc3)CC2)ccn2c(CN3CCOCC3)nnc12 [compound 11] | 300 °C | 7590 nM | – | –
Clc1c(N2CCC(c3ccccc3)CC2)ccn2c(CC3CC3)nnc12 [compound 26, 8-Chloro-3-cyclopropylmethyl-7-[4-phenyl-piperidin-1-yl]-[1,2,4]triazolo[4,3-a]pyridine] | 194.1 °C | – | 6.99 | –
CC1(C)CN(c2ccn3c(CC(F)(F)F)nnc3c2Cl)CCN1c1ccccc1 [compound 100, 8-Chloro-3-(2,2,2-trifluoroethyl)-7-(3,3-dimethyl-4-phenyl-piperazin-1-yl)-[1,2,4]triazolo[4,3-a]pyridine] | 260.2 °C | 309 nM | – | –
Cc1c(N2CCC(c3ccccc3)CC2)ccn2c(CC3CC3)nnc12 [compound 145, 3-Cyclopropylmethyl-8-methyl-7-(4-phenyl-piperidin-1-yl)-[1,2,4]triazolo[4,3-a]pyridine] | > 300 °C | 417 nM | – | –
CC1(c2ccccn2)CCN(c2ccn3c(CC4CC4)nnc3c2C(F)(F)F)CC1 [compound 148, 8-Trifluoromethyl-3-(cyclopropylmethyl)-7-(4-methyl-4-(2-pyridinyl)-piperidin-1-yl)-1,2,4-triazolo[4,3-a]pyridine] | > 300 °C | 363 nM | – | –
FC(F)(F)c1c(N2CCC(c3ccccc3)CC2)ccn2c(Cc3ccccn3)nnc12 [compound 153, 8-Trifluoromethyl-3-(2-pyridinylmethyl)-7-(4-phenylpiperidin-1-yl)-1,2,4-triazolo[4,3-a]pyridine] | > 300 °C | 195 nM | – | –
FC1(F)CCN(C2CCN(c3ccn4c(CC5CC5)nnc4c3Cl)CC2)CC1 [compound 242] | – | – | 5.86 | –
FC(F)(F)c1c(CN2CCC(F)(c3ccccc3)CC2)ccn2c(CC3CC3)nnc12 [compound 250, 3-(Cyclopropylmethyl)-7-[(4-fluoro-4-phenyl-1-piperidinyl)methyl]-8-(trifluoromethyl)-1,2,4-triazolo[4,3-a]pyridine] | – | – | – | ED50 ([2]; Mus musculus, read-out: Mice ED50 (mg/kg) PCP-Inh.): > 10 mg/kg
FC(F)(F)c1c(N2CCC3(C=Cc4ccccc43)CC2)ccn2c(CC3CC3)nnc12 [compound 260] | – | – | 7.47 | –
FC(F)(F)c1c(N2C[C@@H]3[C@H](C2)[C@H]3c2ccccc2)ccn2c(CC3CC3)nnc12 [compound 266] | – | – | 7.88‡ | –
Fc1ccc(COC2CCN(c3ccn4c(CC5CC5)nnc4c3C(F)(F)F)CC2)c(F)c1 [compound 279] | – | – | 7.24‡ | –
Fc1cc(CN2CCN(c3ccn4c(CC5CC5)nnc4c3Cl)CC2)cc(C(F)(F)F)c1 [compound 280] | – | – | 5.95‡ | –
COc1cccc(F)c1N1CCN(c2ccn3c(CC4CC4)nnc3c2C(F)(F)F)CC1 [compound 301] | – | – | 7.45‡ | –
COc1cccc(F)c1N1CCN(c2ccn3c(CC4CC4)nnc3c2Cl)CC1 [compound 302] | – | – | 6.55 | –
FC(F)(F)c1cc(CN2CCN(c3ccn4c(CC5CC5)nnc4c3Cl)CC2)cc(C(F)(F)F)c1 [compound 304] | – | – | 6.12 | –
Fc1ccc(OC2CCN(c3ccn4c(CC5CC5)nnc4c3C(F)(F)F)CC2)c(F)c1 [compound 315] | – | – | 7.24 | –
Fc1ccc(N2CCN(c3ccn4c(CC5CC5)nnc4c3C(F)(F)F)CC2)nc1 [compound 360] | – | – | 6.44‡ | –
